Assay [1] concerns human melanoma cell line, LOX. Put plainly: Melanoma test using nude mice protocol (survival, T/C). Format: in vivo. The text has this:
The present invention will now be described by way of example with reference to the accompanying drawings in which: Figures 1-4 are survival plots of cancer-bearing mice treated with the dyes of this invention, compared to a control group of such mice left untreated. In these plots, "% survival" means the percentage of the total group (treated "T" or control "C") still surviving on the day in question. The 50% data point is selected for the T/C calculation, as being the point that is statistically meaningful. Effectiveness against human cancer can be inferred by tests in the nude mouse-human xenograft model, hereinafter "nude mice protocol". […] 899-903, especially p. 889 (April 1985). Nude mice, that is, those deficient in thymic functions, bred and maintained in pathogen free conditions [see J. Natl. Cancer Inst. 51:615-619 (1973)] were used in in vivo experiments. For each experiment, nude mice from the same litter and of the same sex which were over 3 months old and weighed at least 25g were injected or implanted with cancer cells. A human melanoma cell line, LOX, was used that grows rapidly when inoculated into the peritoneal cavity of the athymic mice. Tumors which had been passaged subcutaneously in athymic mice were excised under sterile conditions and converted to a single cell suspension using a metal grid with a 4 mm mesh. Red blood cells were then lysed by incubation with 0.17 molar ammonium chloride at 4°C for 30 minutes. Cells were then scored for viability with trypan blue and 5 million viable cells made up in 0.2 ml of Dulbecco modified Eagles' medium (DME) were injected intraperitoneally (IP) into a group of male athymic Swiss nu/nu mice (day 0). The mice were then randomly allocated into treatment and control groups (5% dextrose) and treatment, by intraperitoneal injection commenced the following day. In Example 6, five mice received 5 mg/kg of the drug T-5, Table I, administered Monday, Wednesday & Friday of each week for a total of 11 injections. Five mice received the same volume of the control 5% dextrose solution on the same days. […]

For assay [2], the system named is human ovarian carcinoma line OVCAR-3. Put plainly: Ovarian carcinoma (OVCAR-3) test using nude mice protocol (survival, T/C). Format: in vivo. Conditions: for T/C: female nude mice, OVCAR-3 xenograft, three injections per week for 6 weeks (Fig. 3). An excerpt: The present invention will now be described by way of example with reference to the accompanying drawings in which: Figures 1-4 are survival plots of cancer-bearing mice treated with the dyes of this invention, compared to a control group of such mice left untreated. In these plots, "% survival" means the percentage of the total group (treated "T" or control "C") still surviving on the day in question. The 50% data point is selected for the T/C calculation, as being the point that is statistically meaningful. Nude mice, that is, those deficient in thymic functions, bred and maintained in pathogen free conditions [see J. Natl. Cancer Inst. 51:615-619 (1973)] were used in in vivo experiments. For each experiment, nude mice from the same litter and of the same sex which were over 3 months old and weighed at least 25g were injected or implanted with cancer cells. Examples 6 and 7 were repeated, except they were administered to female nude mice (aged 8-12 weeks) xenografted with human ovarian carcinoma line OVCAR-3. Eight mice in Example 6, and 8 mice in Example 7 were selected for treatment with the thiopyrylium, in an amount of 2.5 and 5 mg/kg respectively, administered IP 1 day after the cancer cells were injected. This was repeated as follows: Three injections per week for 6 weeks. Eight mice were used as the control group and were injected with 0.25 ml of 5% dextrose in water.

In assay [3] the test system is MB49 tumor cells. Put plainly: Mouse bladder carcinoma, tumor cells and drug given IP (survival, T/C). The format is in vivo. To be noted: normal male BDFI mice, MB49 cells IP. An excerpt: The present invention will now be described by way of example with reference to the accompanying drawings in which: Figures 1-4 are survival plots of cancer-bearing mice treated with the dyes of this invention, compared to a control group of such mice left untreated. In these plots, "% survival" means the percentage of the total group (treated "T" or control "C") still surviving on the day in question. The 50% data point is selected for the T/C calculation, as being the point that is statistically meaningful. MB49 tumor cells, that is, mouse carcinoma cells induced by the carcinogen 7,12-dimethyl benz[a]anthracene, were obtained by conventional processes and injected intraperitoneally into normal male BDFI mice (5 million/mouse). Each drug treated group and control group had 5 mice. In example 8, 5 mg/kg of T-5 was administered 3 times per week for three weeks, starting Day 1. In Example 9, it was 3 mg/kg three times per week for 3 weeks.

Assay [4] deals with L1210 leukemia cells. The experiment in a line: In vitro IC50, suspension culture, cell count by Coulter Counter. Conditions: compound present for 48 hours (four cell doubling times), read-out: IC50 L1210 Mouse Lymphoma. Format: cell-based. As for the experimental part: (§1) Although these examples were not tested in animal models, their similar efficacy in human melanoma and differentiated carcinomas is predicated from the fact they had similar in vitro results compared to T-5. The in vitro tests were run as follows, to ascertain the IC₅₀ concentrations. (IC₅₀ is the in vitro concentration that kills one-half the cell line against which the compound is tested. The smaller the concentration, the higher the toxicity.)
(§2) For the IC₅₀ values for the human lung carcinoma line, an adhering monolayer culture was used. Two days prior to plating, a number of cells obtained from the American Type Tissue Culture Collection was selected to grow as a stock, the number being that which would ensure the cells had not reached their plateau at the time of the in vitro test. On day 1 of the assay, asynchronous exponentially growing cells from this stock were suspended in a conventional complete medium comprising RPMI 1640 medium supplemented with 5% (v/v) fetal calf serum and 5% (v/v) NV serum obtained from Collaborative Research, and 20mM HEPES buffer, i.e., 4-(2-hydroxyethyl)-1-piperazineethanesulfonic acid. This was plated into a conventional 96-well tissue culture plate using a Cetus/Perkin Elmer automated pipetting device with a dual supply manifold. The cells were then incubated for 48 hours at 37°C in a humidified atmosphere containing 5% CO₂. Selected cells were then incubated under red light for 3 hours in the presence of varying amounts of the compound of interest at 37°C in a humidified incubator containing 5% CO₂. Compounds were tested over a 6-log range of concentrations. The drug treated cells were then rinsed one time with complete medium as set forth above, and incubated in complete medium the length of time appropriate to achieve four cell-doubling times (roughly 7 days for these cell lines). The medium was removed and the cells stained for 1-2 hours at 37°C with 0.1% (w/v) neutral red dye obtained from Eastman Kodak Co., dissolved in phosphate buffered saline (PBS) (without calcium or magnesium cations) at a pH of 6.85. The cells were rinsed twice with the same PBS and dried. Excess neutral red dye was eluted from each well with 50% (v/v) ethanol in 1% (v/v) aqueous glacial acetic acid. The absorbency of each well was quantitated using a Perkin-Elmer absorbence densitameter set at 540 nm. The percent of inhibition of cell growth for a given concentration of compound was calculated using the equation: [formula] where At = absorbence of the cells treated with the candidate drug, Au = absorbence of the control treated with solvent only, and Ab = absorbence of the media and well only (background). […] The plotted data was then fitted to the curve for the function: F(x) = 100 - [100(X/A)^B/(1+(X/A)^B)] where x = the concentration of the test compound, A = the IC₅₀ value (50% inhibition on the plot) and B = the exponent of the fitted function.
To determine the IC₅₀ for the L1210 leukemia cells, a suspension culture was used. The procedure for the monolayer culture was followed, except that the cells were seeded at a density of 3 X 10⁴ cells/ml in the RPMI 1640 medium supplemented this time with 10% (v/v) NV SERUM, no calf serum, and 20mM HEPES buffer, with the compound of interest already added. These were added immediately to a conventional 24-well culture plate and incubated for a four cell doubling time (48 hours for this cell line). Cell numbers were quantitated using the Model ZF Coulter Counter. F(x) was obtained from the equation: [formula] where Nt = number of treated cells detected, never less than No, Nu = number of cells detected in the control that were untreated except for the solvent, and No = number of cells initially seeded.

Assay [5] has as its system human lung carcinoma line. Put plainly: In vitro IC50, adhering monolayer culture, neutral red staining. To be noted: 3 hours drug exposure under red light, then about 7 days growth, read-out: IC50 Lung Adeno-carcinoma. The format is cell-based. Here is the method: as §1, §2
In assay [6] the test system is MB49 tumor cells. The experiment in a line: Mouse bladder carcinoma, tumor cells mixed with drug before instillation into the bladder (bladder weight). Format: in vivo. To be noted: 21 days after tumor initiation; from mean bladder weights vs controls; MB49 cells (4 X 10⁶) mixed with 0.05 mg/ml drug before instillation into the mouse bladder. As for the experimental part:
These values were calculated by dividing the difference between the mean weight of bladders from controls (water-treated animals) and mean weight of bladders of drug-treated animals by the mean weight of bladders from control animals and multiplying this fraction by 100. (In this experiment, the drug was administered by mixing the MB49 tumor cells (4 X 10⁶) with 0.05 mg/ml of the drug prior to instillation of the cell suspension into the mouse bladder.)

Where two headings read alike, the source gives them in different places. Some results are limits rather than exact numbers.

With `CN(C)c1ccc(-c2cc(-c3ccc(N)cc3)[s+]c(-c3ccc(N)cc3)c2)cc1.[Cl-]` [Compound T-5, 2,6-Bis(4-aminophenyl)-4-[4-(N,N-dimethyl-amino)phenyl]thiopyrylium chloride], the T/C is 366% in assay [1] (male athymic Swiss nu/nu mice, LOX cells IP, 5 mg/kg IP Monday, Wednesday & Friday, 11 injections, 50% survival point (Fig. 1)); more than 450% in assay [2] (2.5 mg/kg IP); more than 450% in assay [2] (5 mg/kg IP); 344% in assay [3] (3 mg/kg three times per week for 3 weeks (Example 9, Fig. 4)); 244% in assay [3] (5 mg/kg 3 times per week for three weeks (Example 8, Fig. 4)). Besides, the “Survival (T/C)” value in assay [1] (male athymic Swiss nu/nu mice, LOX cells IP, 8 mg/kg IP Wednesday and Saturday for 3 weeks (Fig. 2)) is recorded as 338%. The IC50 is 220 nM in assay [4] (Mus musculus, L1210, 48 h); 140 nM in assay [4]; 60 to 80 nM in assay [5]; 40 nM in assay [5] (Homo sapiens).

Consider `COc1ccc(-c2cc(-c3ccc(N)cc3)[s+]c(-c3ccc(N)cc3)c2)cc1` [Compound T-4, 2,6-Bis(4-aminophenyl)-4-(4-methoxyphenyl)-thiopyrylium chloride], for which the IC50 in assay [4] (Mus musculus, L1210, 48 h) is 10 nM; in assay [5] (Homo sapiens), 11 nM.

`CN(C)c1ccc(-c2cc(-c3ccccc3)[s+]c(-c3ccc(N(C)C)cc3)c2)cc1` [Compound T-6]: in assay [6], the “average inhibition in tumor growth” value worked out at 21.6%.

`CN(C)c1ccc(-c2cc(-c3ccccc3)[s+]c(-c3ccccn3)c2)cc1` [4-(4-N,N-dimethylaminophenyl-2-phenyl-6-(2-pyridyl)thiopyrylium chloride, reference compound] gave a T/C against melanoma in assay [1] (comparative example, xenografted human melanoma, very similar procedures, dose not stated, also listed in the Related Application) of 227%. In assay [2] (comparative example, xenografted human ovarian cancer, very similar procedures, dose not stated, also listed in the Related Application), the “T/C against the ovarian carcinoma” value is given as 340%.

As for `CN(C)c1ccc(-c2cc(-c3cccc(N)c3)[s+]c(-c3cccc(N)c3)c2)cc1` [Compound T-1, 2,6-Bis(3-aminophenyl)-4-[4-(dimethyl-amino)phenyl]thiopyrylium chloride], the IC50 in assay [4] (Mus musculus, L1210, 48 h) was 38 nM; in assay [5] (Homo sapiens) it was 370 nM.

For `Nc1ccc(-c2cc(-c3ccccc3)cc(-c3ccc(N)cc3)[s+]2)cc1` [Compound T-3, 2,6-Bis(4-aminophenyl)-4-phenylthiopyrylium chloride], the IC50 in assay [4] (Mus musculus, L1210, 48 h) was 33 nM; in assay [5] (Homo sapiens), 17 nM.

Turning to `Nc1ccc(-c2cc(-c3ccc(N)cc3)[s+]c(-c3ccc(N)cc3)c2)cc1` [Compound T-2, 2,4,6-Tris(4-aminophenyl)thiopyrylium chloride], the IC50 in assay [4] (Mus musculus, L1210, 48 h) came out at 270 nM; in assay [5] (Homo sapiens), 190 nM.

For the origin of these results see EP0315491A2, “Amino-substituted pyrylium dyes and uses thereof” (EASTMAN KODAK COMPANY (a New Jersey corporation), priority 1987, dated 1989).
